We go through 9 molecules from patent US8486953B2, “Thienopyrimidines for pharmaceutical compositions” (Boehringer Ingelheim International GmbH, priority 2008, dated 2013).

The subject of assay [1] is Mnk2 (Mnk2a or Mnk2b) or Mnk1. The settings on record: cell culture cells transfected with Mnk2 (Mnk2a or Mnk2b) or Mnk1; cited from earlier work.
The target of a further assay is human Mnk2a (Homo sapiens (Human), UniProt Q9HBH9). Briefly: Mnk2a in vitro kinase assay (indirect fluorescence polarization). Type of assay: biochemical. As for the experimental part: (§1) Inhibitory potency of compounds against Mnk1, Mnk2a and other kinases was assessed with assays based on a format known to those skilled in the art as the indirect (competitive) fluorescence polarization. The assay detection system comprises a small fluorophore-labeled phospho-peptide (termed ligand) bound to a phospho-specific antibody. The product generated by the kinase reaction competes with the ligand for antibody binding. Based on the larger molecular volume of the bound ligand, which results in a lower rotation rate in solution, its emitted light has a higher degree of polarization than the one from the free ligand.
Chain of human Mnk2a (Q9HBH9 whole entry): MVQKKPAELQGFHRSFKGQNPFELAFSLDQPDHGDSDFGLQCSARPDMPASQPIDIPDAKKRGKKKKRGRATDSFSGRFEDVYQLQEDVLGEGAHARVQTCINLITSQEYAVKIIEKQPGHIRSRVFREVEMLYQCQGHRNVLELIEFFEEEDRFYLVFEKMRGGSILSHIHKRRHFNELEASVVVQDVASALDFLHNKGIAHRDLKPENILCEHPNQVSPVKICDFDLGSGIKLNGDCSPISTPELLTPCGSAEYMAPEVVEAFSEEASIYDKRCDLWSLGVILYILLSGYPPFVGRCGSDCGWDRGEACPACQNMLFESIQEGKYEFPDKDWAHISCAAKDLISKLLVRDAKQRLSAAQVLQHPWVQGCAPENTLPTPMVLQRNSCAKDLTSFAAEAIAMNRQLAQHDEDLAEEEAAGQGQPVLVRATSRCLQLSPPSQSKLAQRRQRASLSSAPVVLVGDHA
(§2) In brief, the open reading frames of human Mnk1 and Mnk2a were amplified from cDNA using the forward/reverse primer pairs
(§3) (utilized restriction sites underlined), respectively, and cloned into the BamHI and SalI sites of the vector pGEX-4T1 (Amersham, Sweden, cat. no. 27-4580-01). These constructs allow prokaryotic expression of Mnk1 or Mnk2a as fusion protein with a N-terminal glutathione S-transferase (GST) tag, referred to as GST-Mnk1 or GST-Mnk2a. The following expression and purification procedure was identical for GST-Mnk1 and GST-Mnk2a, referring in general to GST-Mnk, when not distinguishing between the two isoforms. Expression of GST-Mnk was in E. coli BL21 (Merck Biosciences, Germany, cat. no. 69449). Cells were grown in LB-Bouillon (Merck, Germany, cat. no. 1.10285) supplemented with 100 μg/ml ampicillin (Sigma, Germany, cat. no. A9518) at 37° C. When the culture had reached a density corresponding to an A600 of 0.8, an equal volume of ice cold LB/ampicillin was added, the culture transferred to 25° C. and induced for 4 h with 1 mM isopropyl thiogalactoside (IPTG, Roth, Germany, cat. no. 2316.4). Cells harvested by centrifugation were resuspended in 10 ml lysis buffer (50 mM tris(hydroxymethyl)aminomethane hydrochloride (Tris/HCl, Sigma, Germany, cat. no. T5941) pH 7.5, 300 mM sodium chloride (NaCl, Sigma, Germany, cat. no. S7653), 5% (w/v) glycerol (Sigma, Germany, cat. no. G5516), 3 mM DTT dithiotreitol (DTT, Sigma, Germany, cat. no. D9779)) per gram wet weight cell pellet. Lysates were prepared by disruption of cells with a sonifier and subsequent clearing by centrifugation at 38000 g for 45 min at 4° C.
(§4) The lysate was applied to a GSTPrep FF 16/10 column (Amersham, Sweden, cat. no. 17-5234-01) equilibrated with lysis buffer. Removal of unbound material was with 3 column volumes (CV) lysis buffer. Elution was with 2 CV of elution buffer (50 mM Tris/HCl pH 7.5, 300 mM NaCl, 5% (w/v) glycerol, 20 mM glutathione (Sigma, Germany, cat. no. G4251)). Peak fractions were pooled and the protein transferred into storage buffer (50 mM Tris/HCl pH 7.5, 200 mM NaCl, 0.1 mM ethylene glycol-bis(2-aminoethylether)-N,N,N′,N′-tetraacetic acid (EGTA, Aldrich, Germany, cat. no. 23, 453-2), 1 mM DTT, 10% (w/v) glycerol, 0.5 M sucrose (Sigma, Germany, cat. no. SO389) by gel filtration on a PD10 desalting column (Amersham, Sweden, cat. no. 17-0851-01). Aliquots were shock frozen in liquid nitrogen and stored at −80° C.
(§5) Activation of Mnk1 and Mnk2a was at a concentration of 2.5 μM of either purified GST-Mnk1 or GST-Mnk2a by incubation with 150 nM pre-activated NHis-ERK2 (see ERK2 assay for preparation) and 50 μM adenosine triphosphate (ATP, Sigma, cat. no. A2699) in a buffer comprising 20 mM N-(2-hydroxyethyl)piperazine-N′-(2-ethanesulfonic acid) (HEPES, Fluka, Germany, cat. no 54459)/potassium hydroxide (KOH, Roth, Germany, cat. no 6751.1) pH 7.4, 10 mM magnesium chloride (MgCl2, Sigma, Germany, cat. no. M2670), 0.25 mM DTT, 0.05% (w/v) polyoxyethylene 20 stearylether (Brij 78, Sigma, Germany, cat. no. P4019) (HMDB buffer) for 45 min at 30° C.

For another assay, the target named is human Mnk1 (Homo sapiens (Human), UniProt Q9BUB5). The assay is described as follows: Mnk1 in vitro kinase assay (indirect fluorescence polarization). Type of assay: biochemical. The method, then: as §1, §2, §3, §4, §5
Chain of human Mnk1 (Q9BUB5 other isoform, or with tags, fused parts or gaps): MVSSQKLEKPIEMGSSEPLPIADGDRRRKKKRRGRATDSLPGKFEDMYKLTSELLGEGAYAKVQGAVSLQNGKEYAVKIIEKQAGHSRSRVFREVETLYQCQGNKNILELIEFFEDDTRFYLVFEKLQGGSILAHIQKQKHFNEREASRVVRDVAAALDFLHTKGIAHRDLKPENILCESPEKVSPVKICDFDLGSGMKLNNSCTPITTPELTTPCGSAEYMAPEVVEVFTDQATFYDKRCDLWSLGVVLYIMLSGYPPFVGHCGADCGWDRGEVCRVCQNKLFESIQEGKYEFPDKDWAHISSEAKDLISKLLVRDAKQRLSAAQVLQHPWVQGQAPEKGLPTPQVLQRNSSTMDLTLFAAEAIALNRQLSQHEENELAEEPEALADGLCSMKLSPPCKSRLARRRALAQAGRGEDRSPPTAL
(In general: Fluorescence polarisation rises when a labelled molecule tumbles more slowly, as on binding a larger partner.)

Consider `Nc1ncnc2n[nH]c(Nc3ccc(F)cc3)c12` [CGP57380], for which the “reduction of phosphorylated eIF4E” value in assay [1] was “strong reduction”.
A word on the IC50: it is the concentration that gives 50% inhibition. Low values mean inhibition by little substance, high ones a need for much substance. `CCOc1cc(C(N)=O)ccc1Nc1ncnc2sc(C(N)=O)c(C)c12` [Example 2, 4-(4-Carbamoyl-2-ethoxyphenylamino)-5-methylthieno[2,3-d]pyrimidine-6-carboxamide]: the results for the IC50 against human Mnk2a and against human Mnk1 were 28 nM and 120 nM, respectively.
Take `COCCNC(=O)c1sc2ncnc(Nc3ccc(F)cc3OC3CCOCC3)c2c1C` [Example 6, 4-(4-Fluoro-2-(tetrahydro-2H-pyran-4-yloxy)phenylamino)-N-(2-methoxyethyl)-5-methylthieno[2,3-d]pyrimidine-6-carboxamide]: the IC50 on human Mnk2a amounted to 35 nM; against human Mnk1 it was 180 nM.
Taken in the same sequence, the figures for `Cc1c(C(=O)NCCCN(C)C)sc2ncnc(Nc3ccc(F)cc3OC3CCOCC3)c12` [Example 9, N-(3-(Dimethylamino)propyl)-4-(4-fluoro-2-(tetrahydro-2H-pyran-4-yloxy)phenyl-amino)-5-methylthieno[2,3-d]pyrimidine-6-carboxamide] were 27 nM and 100 nM.
Taken in the same sequence, the figures for `Cc1c(C(=O)NCCN2CCOCC2)sc2ncnc(Nc3ccc(F)cc3OC3CCOCC3)c12` [Example 10, 4-(4-Fluoro-2-(tetrahydro-2H-pyran-4-yloxy)phenylamino)-5-methyl-N-(2-morpholinoethyl)thieno[2,3-d]pyrimidine-6-carboxamide] were 34 nM and 210 nM.
With `Cc1c(C(=O)NCCCN(C)C)sc2ncnc(Nc3ccc(C(F)(F)F)nc3OC3CCOCC3)c12` [Example 34, 4-(2-(Tetrahydro-2H-pyran-4-yloxy)-6-(trifluoromethyl)pyridin-3-ylamino)-N-(3-(dimethylamino)propyl)-5-methylthieno[2,3-d]pyrimidine-6-carboxamide], the IC50 against human Mnk2a stood at 560 nM; on human Mnk1 it was 680 nM.
The matching figures for `Fc1ccc(Nc2ncnc3sc4c(c23)CCNC4)c(OC2CCOCC2)c1` [Example 41, [4-fluoro-2-(tetrahydro-2H-pyran-4-yloxy)-phenyl]-(5,6,7,8-tetrahydro-pyrido[4′,3′:4,5]thieno[2,3-d]pyrimidin-4-yl)-amine]: 110 nM and 210 nM.
Take `Cc1c(C(N)=O)sc2ncnc(Nc3ccc(F)cc3OC3CCN(Cc4ncon4)CC3)c12` [Example 48, 4-(2-(1-((1,2,4-Oxadiazol-3-yl)methyl)piperidin-4-yloxy)-4-fluorophenylamino)-5-methylthieno[2,3-d]pyrimidine-6-carboxamide]: the results for the IC50 at human Mnk2a and against human Mnk1 were 92 nM and 460 nM, respectively.
Taken in the same sequence, the figures for `Cc1c(C(=O)NCCCN(C)C)sc2ncnc(Nc3ccc(F)cc3OC(C)C)c12` [Example 53, N-(3-(Dimethylamino)propyl)-4-(4-fluoro-2-iso-propoxyphenylamino)-5-methylthieno[2,3-d]pyrimidine-6-carboxamide] were 6 nM and 35 nM.
